# Test results from a melting point compilation (Tetko et al.; mined from patent text by program, amines drawn as free bases though some values may be those of a salt).
row,melting point [°C],Structure (SMILES)
1,110,CCOC(=O)c1nc2ccc(CO)cc2n1OC
2,283 to 284,CCCc1nn(C)c2c(=O)[nH]c(-c3cc(S(=O)(=O)N4CCN(C)CC4)ccc3O)nc12
3,270 to 290,Cc1c(-c2ccccc2)sc2nc(Nc3ccccc3)[nH]c(=O)c12
4,155 to 156,OCc1c(CO)c2sc3ccccc3n2c1-c1ccc(F)cc1
5,241 to 242,COCC(=O)NC(CC(=O)Nc1n[nH]c(=S)s1)c1ccccc1 (stereo not given)
6,178 to 183,CCOC(=O)C(=O)Nc1c([N+](=O)[O-])sc2ccc([N+](=O)[O-])cc12
7,157 to 158,CCN(CC)Cc1ccc2c(c1)-c1[nH]nc(-c3ccsc3)c1C2
8,175 to 180,CCCCCN(C(=O)Nc1ccc(C(=O)O)cn1)c1ccc2c(c1)C(C)(C)CCC2(C)C
9,207 to 208,CCCc1nc2c(N)nc3c(c2n1CC1(O)CCCC1)NCCC3
10,256 to 258,COc1ccc(C(C#N)C(=O)C(=O)C(C#N)c2ccccc2)cc1 (stereo not given)
11,245 to 247,CCOC(=O)NC(=O)C(C#N)=CNc1c(Cl)cc(Cl)cc1Cl
12,79 to 81,Brc1cccc(OCc2ccc3ccccc3n2)c1
13,88 to 91,COC(=O)COC(=O)C(Cl)=Cc1cc(-n2ncc(C(F)(F)F)c(C)c2=O)c(F)cc1Cl
14,105 to 107,Cc1cnc2ccc(-c3cccc(C(F)(F)F)c3)nn12
15,255,CN1C2=C(C(=O)OC2)C(c2ccncc2)c2cc3c(cc21)OCO3 (stereo not given)
16,150,CC(C(=O)O)c1ccc(C2CCCCC2)c2ccccc12 (stereo not given)
17,200 to 202,NC(=O)CCCOc1cccc(-c2n[nH]c3c2Cc2ccccc2-3)c1
18,235 to 240,CN(C)CC(C)(C)Oc1cnc(Nc2cc(-c3cccc(-n4ncc5cc(C(C)(C)C)cc(F)c5c4=O)c3CO)nn(C)c2=O)cn1
19,215 to 216,COC(=O)c1ccc2nc3cc(C)sc3c(=O)n2c1
20,186,O=Cc1ccc(-c2ncc(Cl)cn2)cc1
21,257 to 259,CCn1cc(C(=O)O)c(=O)c2cc(F)c(-n3cccc3)nc21
22,90 to 92,CCOc1nc(C)ccc1C#N
23,169 to 171,CC(=O)NC[C@H]1CN(c2cc(F)c(C3CCN(C(=O)COCc4ccccc4)CC3)c(F)c2)C(=O)O1
24,135 to 137,CCCCCCOC1CC(C)(C)N(c2nc(N(CCCC)C3CC(C)(C)NC(C)(C)C3)nc(N(CCCC)C3CC(C)(C)NC(C)(C)C3)n2)C(C)(C)C1

row,melting point [°C],Structure (SMILES)
1,154 to 159,Clc1cc(C2CO2)cc(OCc2ccccc2)c1OCc1ccccc1 (stereo not given)
2,165 to 167,Cc1cc(OC/C=C/c2ccc(C(C)C)cc2)c(C)c(C)c1NC=O
3,172 to 174,c1ccc2c(c1)CNc1cccnc1O2
4,119 to 120,CCCC12CCC3=C(CCc4cc(OC)ccc43)C1CCC21OCCO1 (stereo not given)
5,70 to 71,CCOC(=O)c1ccc(CBr)cc1OC
6,198 to 204,COc1cc(OC)nc(C2(O)OC(=O)c3c(-c4ccco4)ccnc32)n1 (stereo not given)
7,242,Cc1cc(C)cc(C(=O)c2ccc(O)c(CC(=O)O)c2)c1
8,118 to 119,O=[N+]([O-])c1ccc(Cc2nc3c(s2)CCCC3)cc1
9,138 to 140,COc1cc2nc(N3CCN(C(=S)Nc4ccccc4)CC3)nc(N)c2cc1OC
10,151 to 152,OCCOc1ccc(-n2cncn2)cc1
11,141 to 143,Cc1c(N)ccc(Cc2ccc(N)c(C)c2C)c1C
12,84 to 87,Nc1c(C(=O)c2cccc(C(F)(F)F)c2)[nH]c2cc(Cl)ccc12
13,163 to 164,NC(=O)c1ccnc(-c2ccccc2)c1N
14,217,O=C(Cc1cccc(O)c1)NNC(=O)c1c(O)cc(O)cc1Cl
15,173 to 174,CCOC(=O)c1ccc(-c2cnc3c(c2)N(Cc2cc(F)ccc2F)CCN3)cc1
16,206,Nc1nc(NCCN2CCC(Nc3nc4ccccc4n3Cc3ccc(F)cc3)CC2)ccc1[N+](=O)[O-]
17,129 to 130,CCOc1cc2c(cc1O)C(=O)CC(C)(C)O2
18,163 to 166,CC1(C)[C@@H](CS(=O)(=O)c2ccc(S(C)(=O)=O)cc2)CC[C@@]1(C)NCC(=O)N1C[C@@H](F)C[C@H]1C#N
19,148 to 151,CSC(=NCCN1CCC(c2noc3cc(F)ccc23)CC1)NC#N
20,186,CCc1cn(C2CC(OC(C)=O)C(CCC(=O)Cc3c(Cl)cccc3Cl)O2)c(=O)[nH]c1=O (stereo not given)
21,133,O=C(NCc1ccccc1Cl)c1ccc(Br)cc1
22,41 to 42,CCOC(=O)COc1ccc(C(=O)CN2CCN(c3ccncc3)CC2)cc1
23,149 to 150,CCOc1nc2ccccc2nc1NC(=O)N1CCN(c2cc(OC)cc(OC)c2)CC1
24,254 to 256,COc1cc2c(Nc3ccc(Cl)cc3F)ncnc2cc1OCCCC(=O)N1CCCC1

row,melting point [°C],Structure (SMILES)
1,78 to 79,COC(=O)CNC(C)=S
2,144,COc1ccc(CCN(C)CCCC2(c3ccc(OC)c(OC)c3)S(=O)(=O)CCCS2(=O)=O)cc1OC
3,148,CC1(O)c2ccc(Cl)cc2CC1(F)S(C)(=O)=O (stereo not given)
4,274 to 276,Cc1ccc(-c2[nH]c(-c3ccccc3)nc2C(=O)Nc2nc(-c3ccccc3)cs2)cc1
5,214 to 215,O=C(NCC(O)C(=O)O)c1cc2cc(Cl)ccc2[nH]1 (racemic)
6,85 to 88,COc1cc(CBr)c(OC)cc1Cl
7,251 to 254,COc1ccc2c(C)nc(=O)[nH]c2c1
8,146 to 148,O=CN1CCCN2c3ccccc3Cc3ccccc3C2C1 (stereo not given)
9,56 to 58,CC1(C)OCC(CBr)(CBr)CO1
10,240 to 241,CNC(=O)Nc1snc(N(C)C)c1C#N
11,200 to 202,N#Cc1cccc(Oc2ncccc2C(=O)NCc2ccc(-c3cccc(C(=O)O)c3)cc2F)c1
12,76 to 78,COc1ccc(C2=CCCCc3cc(OCc4ccccc4)ccc32)cc1
13,137 to 138,C#Cc1cccc(Nc2ncnc3cc(OCCOC(C)=O)c(OCCOC(C)=O)cc23)c1
14,70,OC(COC1CCCCO1)(Cn1cncn1)c1ccc(Cl)cc1 (stereo not given)
15,124 to 126,CC(=O)Oc1ccc(-c2ccc(C(C)=O)cc2)cc1
16,301 to 303,O=c1[nH]c2ccccc2n2cc(-c3ccccc3)cc12
17,142 to 143,Cn1nc(-c2c(Cl)cncc2Cl)nc1Cc1ccc(Cl)cc1
18,183 to 185,CCOC1C(NC(=O)C(F)(F)F)CC(OC)OC1C (stereo not given)
19,164 to 167,CN1C(=O)CN2CCNC2(c2ccccc2)c2cc(Cl)ccc21 (stereo not given)
20,120 to 121,COC(CCN(C(=O)OC(C)(C)C)c1cc(OCc2ccccc2)c2ncccc2c1I)OC
21,142 to 144,OCC(COc1noc2ccc(Cl)cc12)NC(c1ccccc1)(c1ccccc1)c1ccccc1 (stereo not given)
22,173 to 175,Cc1sc(N2C(=O)c3ccccc3C2=O)c(C(=O)c2ccc(Cl)cc2)c1CBr
23,289 to 290,O=C(Oc1ccccc1)c1cc2ccc3c4cc(F)ccc4[nH]c3c2cc1O
24,105 to 106,N#Cc1cc(C=O)cnc1Br

row,melting point [°C],Structure (SMILES)
1,214 to 216,Cc1c(C(=O)O)oc2c(C(=O)c3ccc(Cl)cc3)cc(C(C)(C)C)c(O)c12
2,153 to 154,O=C1CCC(CCO)(c2ccc(F)c(F)c2)CN1Cc1ccccc1 (stereo not given)
3,87 to 88,CC(C)(CC12CC3CC(CC(C3)C1)C2)NC=O
4,145 to 149,CC(C)Nc1nc(S(C)(=O)=O)nc(Cl)c1-c1c(F)cccc1Cl
5,226 to 227,CC1CN(c2cc3c(cc2F)c(=O)c(C(=O)O)cn3CCF)CCN1 (stereo not given)
6,128 to 138,CCCCCCCCCCCCNC(=O)c1cc(Br)c(OCC(=O)O)c(-c2ccccc2F)c1
7,178,CC(C)(Oc1ccc(OCc2cnc(-c3ccc(C(F)(F)F)cc3)nc2C2CC2)c(F)c1)C(=O)O
8,252,N#Cc1ccc(N2CCN(Cc3cnc4c(c3)NC(=O)[C@@H]3CCCN43)CC2)cc1
9,112,CCCCOc1ccc(S(=O)(=O)C2(C(=O)NO)CCN(CCOc3ccccc3)CC2)cc1
10,160,O=C(c1nc(-c2ccccc2)nc2ccccc12)N1CCCCC1
11,113 to 115,CC(=O)Nc1cc(F)ccc1SCC#N
12,160 to 161,CC1(C)CC(=C(c2ccc(O)cc2)c2ccc(CCCO)cc2)CC(C)(C)C1
13,205 to 206,O=S1(=O)N=CN(C2CC2)c2cc(Cl)c(F)cc21
14,69 to 71,CCOC(=O)CCc1ccc2c(c1)CC(CNC(=O)OC(C)(C)C)CC2 (stereo not given)
15,146 to 147,Cc1cc2ccccc2c(-c2ccc(I)cc2)n1
16,70,CC(OCc1cc2cc(Cl)ccc2n1S(=O)(=O)c1ccc2c(c1)OCCO2)C(=O)O (stereo not given)
17,118 to 119,Cc1cc(C2(C(F)(F)F)CC(c3ccc(Cl)cc3)=NO2)ccc1N (stereo not given)
18,200 to 202,Cn1cc(CCN2C(=O)c3ccccc3C2=O)c2cc(CC(N)=O)ccc21
19,101 to 105,COc1cc(NC(=O)Nc2ccc(C3CCN(C(=O)Nc4ccc(OCCO)cc4Cl)CC3)cc2)cc(OC)c1
20,168 to 170,CC(=O)Nc1ccc(-n2ccnc2S(=O)Cc2ccccc2N(C)C)nc1 (stereo not given)
21,220 to 222,O=[N+]([O-])c1ccc(Oc2ccc(S(=O)(=O)c3ccc(Oc4ccc([N+](=O)[O-])c(O)c4)cc3)cc2)cc1O
22,134 to 135,Cc1ncc2cc(Cl)nc(Cl)n12

row,Structure (SMILES),melting point [°C]
1,CC1(C)CCC(C)(C)c2cc(-c3csc(C=O)c3)ccc21,84 to 85
2,O=C1N(CC2CCC2)c2ccccc2C1(O)c1ccc2c(c1)OCO2 (stereo not given),124 to 125
3,Cn1ncc(N2CCNCC2)c(Cl)c1=O,83 to 87
4,Cc1cccc2c1N(CC(=O)N1CC3CCC(CC3)C1)C(=O)C(NC(=O)Nc1cccc(C=O)c1)N=C2c1ccccc1F (stereo not given),237 to 242
5,O=[N+]([O-])N=C1NC(O)CN1Cc1ccc(Cl)nc1 (stereo not given),170
6,"CN1CCC(O)(c2cccc(F)c2F)C1 (single isomer, unassigned; (-))",131 to 132
